# Tested on: NBD1/3D
# Assay: Aggregation analysis using differential static light scattering (DSLS), NBD1 thermal stability
# Format: binding, Human
# Conditions: ΔTagg versus DMSO control; compound at 100 μM
# Outline: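 Purified NBD1 at 0.2 mg/ml in S200 buffer (pH 7.6, 2 mM ATP, 5 mM MgCl2, 1% glycerol) was heated with compound at 1 °C/min to 70 °C. Tagg taken from the light-scattering curve inflection point; ΔTagg = compound Tagg minus mean DMSO control Tagg.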
row,SMILES,DSLS NBD1/3D Human Stability delta-T (° C.) @ 100 (μM)
1,"CC(c1c[nH]c(-c2cc(Oc3c(F)cc4[nH]ccc4c3S(C)(=N)=O)ccc2F)n1)c1cccc(CCC(=O)O)c1F (single isomer, unassigned) [Example 136B, 3-(2-fluoro-3-(1-(2-(2-fluoro-5-((6-fluoro-4-(S-methylsulfonimidoyl)-1H-indol-5-yl)oxy)phenyl)-1H-imidazol-4-yl)ethyl)phenyl)propanoic acid]",A (A: T ≥ 10° C.)
2,"CCCC(O)(c1cccc(CCC(=O)O)c1)c1c[nH]c(-c2cc(Oc3c(F)cc4[nH]ccc4c3C)ccc2F)n1 (stereo not shown) [Example 225, 3-(3-(1-(2-(2-fluoro-5-((6-fluoro-4-methyl-1H-indol-5-yl)oxy)phenyl)-1H-imidazol-4-yl)-1-hydroxybutyl)phenyl) propanoic acid]",B (B: 5-10° C.)
3,"CCC(C#N)(c1cccc(CCC(=O)O)c1)c1c[nH]c(-c2cc(Oc3c(F)cc4[nH]ccc4c3C)ccc2F)n1 (stereo not shown) [Example 51, 3-(3-(1-cyano-1-(2-(2-fluoro-5-((6-fluoro-4-methyl-1H-indol-5-yl)oxy)phenyl)-1H-imidazol-4-yl)propyl)phenyl)propanoic acid]",A (A: T ≥ 10° C.)
4,"CO[C@]1(C)C[C@@](c2cc(F)cc(CCC(=O)O)c2)(c2c[nH]c(-c3cc(Oc4c(F)cc5[nH]ccc5c4S(C)(=O)=O)ccc3F)n2)C1 [Example 72, 3-(3-Fluoro-5-((1r,3r)-1-(2-(2-fluoro-5-((6-fluoro-4-(methylsulfonyl)-1H-indol-5-yl)oxy)phenyl)-1H-imidazol-5-yl)-3-methoxy-3-methylcyclobutyl)phenyl)propanoic acid]",A (A: T ≥ 10° C.)
5,"CC(O)(c1cccc(CCC(=O)O)c1)c1cnc(-c2cc(Oc3c(F)cc4[nH]ccc4c3F)ccc2F)[nH]1 (single isomer, unassigned) [Example 216B, 3-(3-(1-(2-(5-((4,6-difluoro-1H-indol-5-yl)oxy)-2-fluorophenyl)-1H-imidazol-5-yl)-1-hydroxyethyl)phenyl) propanoic acid]",A (A: T ≥ 10° C.)
6,"Cc1c(Oc2ccc(F)c(-c3nc(Cc4cccc(CCC(=O)O)c4)nn3C)c2)c(F)cc2[nH]ccc12 [Example 242, 3-(3-((5-(2-Fluoro-5-((6-fluoro-4-methyl-1H-indol-5-yl)oxy)phenyl)-1-methyl-1H-1,2,4-triazol-3-yl)methyl)phenyl)propanoic acid]",B (B: 5-10° C.)
7,"Cc1c(Oc2ccc(F)c(-c3ncc(C(C)c4cccc([C@H]5CC5C(=O)O)c4F)[nH]3)c2)c(F)cc2[nH]ccc12 (single isomer, unassigned) [Example 139H, trans-2-(2-fluoro-3-(1-(2-(2-fluoro-5-((6-fluoro-4-methyl-1H-indol-5-yl)oxy)phenyl)-1H-imidazol-5-yl)ethyl)phenyl)cyclopropane-1-carboxylic acid]",C (C: ≤5° C.)
8,"[2H]C([2H])([2H])C(C#N)(c1cc(F)cc(CCC(=O)O)c1)c1c[nH]c(-c2cc(Oc3c(F)c(F)c4[nH]ccc4c3F)ccc2F)n1 (single isomer, unassigned) [Example 66, 3-(3-(1-cyano-1-(2-(2-fluoro-5-((4,6,7-trifluoro-1H-indol-5-yl)oxy)phenyl)-1H-imidazol-4-yl)ethyl-2,2,2-d3)-5-fluorophenyl)propanoic acid]",B (B: 5-10° C.)
9,"Cc1c(Oc2ccc(F)c(-c3ncc(C(C)c4cccc([C@@H]5C[C@@H]5C(=O)O)c4F)[nH]3)c2)c(F)cc2[nH]ccc12 (single isomer, unassigned) [Example 138A, cis-2-(2-fluoro-3-(1-(2-(2-fluoro-5-((6-fluoro-4-methyl-1H-indol-5-yl)oxy)phenyl)-1H-imidazol-5-yl)ethyl)phenyl)cyclopropane-1-carboxylic acid]",C (C: ≤5° C.)
10,"CC(O)(c1cccc(CCC(=O)O)c1)c1csc(-c2cccc(Oc3c(F)cc4[nH]ccc4c3P(C)(C)=O)c2)n1 (stereo not shown) [Example 98, 3-(3-(1-(2-(3-((4-(Dimethylphosphoryl)-6-fluoro-1H-indol-5-yl)oxy)phenyl)thiazol-4-yl)-1-hydroxyethyl)phenyl)propanoic acid]",B (B: 5-10° C.)
11,"O=C(O)CCc1cccc(C2(c3csc(-c4cccc(Oc5c(F)cc6[nH]ccc6c5F)c4)n3)CCOCC2)c1 [Example 95, 3-(3-(4-(2-(3-((4,6-difluoro-1H-indol-5-yl)oxy)phenyl)thiazol-4-yl)tetrahydro-2H-pyran-4-yl)phenyl)propanoic acid]",B (B: 5-10° C.)
12,"Cc1c(Oc2ccc(F)c(-c3ncc(C4(c5cccc(CCC(=O)O)c5)CCCC4)[nH]3)c2)c(F)cc2[nH]ccc12 [Example 146, 3-(3-(1-(2-(2-fluoro-5-((6-fluoro-4-methyl-1H-indol-5-yl)oxy)phenyl)-1H-imidazol-5-yl)cyclopentyl)phenyl)propanoic acid]",B (B: 5-10° C.)
13,"CC(CC#N)(c1cccc(CCC(=O)O)c1)c1cnc(-c2cc(Oc3c(F)cc4[nH]ccc4c3S(C)(=O)=O)ccc2F)[nH]1 (stereo not shown) [Example 76, 3-(3-(1-Cyano-2-(2-(2-fluoro-5-((6-fluoro-4-(methylsulfonyl)-1H-indol-5-yl)oxy)phenyl)-1H-imidazol-5-yl)propan-2-yl)phenyl)propanoic acid]",A (A: T ≥ 10° C.)
14,"CC(C#N)(c1cccc(CCC(=O)O)c1)c1c[nH]c(-c2cc(Oc3c(F)cc4[nH]ccc4c3CC(F)F)ccc2F)n1 (stereo not shown) [Example 55, 3-(3-(1-cyano-1-(2-(5-((4-(2,2-difluoroethyl)-6-fluoro-1H-indol-5-yl)oxy)-2-fluorophenyl)-1H-imidazol-4-yl)ethyl)phenyl)propanoic acid]",B (B: 5-10° C.)
15,"CNC(=O)c1c(Oc2cccc(-c3ccn(Cc4cccc(CCC(=O)O)c4)n3)c2)ccc2[nH]ccc12 [Example 16, 3-(3-((3-(3-((4-(Methylcarbamoyl)-1H-indol-5-yl)oxy)phenyl)-1H-pyrazol-1-yl)methyl)phenyl)propanoic acid]",B (B: 5-10° C.)
16,"O=C(O)CCCCCCc1cccc(Cc2nnc(-c3cccc(Oc4ccc5[nH]ccc5c4)c3)[nH]2)c1 [Example 256, 7-(3-((5-(3-((1H-indol-5-yl)oxy)phenyl)-4H-1,2,4-triazol-3-yl)methyl)phenyl)heptanoic acid]",C (C: ≤5° C.)
17,"CC(c1c[nH]c(-c2cc(Oc3c(F)cc4[nH]ccc4c3CC(F)F)ccc2F)n1)c1cccc(CCC(=O)O)c1F (single isomer, unassigned) [Example 129B, 3-(3-(1-(2-(5-((4-(2,2-difluoroethyl)-6-fluoro-1H-indol-5-yl)oxy)-2-fluorophenyl)-1H-imidazol-4-yl)ethyl)-2-fluorophenyl)propanoic acid]",C (C: ≤5° C.)
18,"CC(O)(c1cccc(CCC(=O)O)c1)c1c[nH]c(-c2cc(C(O)c3ccc4[nH]ccc4c3)ccc2F)n1 (stereo not shown) [Example 218, 3-(3-(1-(2-(2-Fluoro-5-(hydroxy(1H-indol-5-yl)methyl)phenyl)-1H-imidazol-4-yl)-1-hydroxyethyl)phenyl)propanoic acid]",B (B: 5-10° C.)
19,"CC(O)(c1cccc(CCC(=O)O)c1)c1nnc(-c2cc(Oc3c(F)cc4[nH]ccc4c3F)ccc2F)[nH]1 (stereo not shown) [Example 250, 3-(3-(1-(5-(5-((4,6-Difluoro-1H-indol-5-yl)oxy)-2-fluorophenyl)-4H-1,2,4-triazol-3-yl)-1-hydroxyethyl)phenyl)propanoic acid]",B (B: 5-10° C.)
20,"Cc1c(Oc2ccc(F)c(-c3nc(C4(c5cccc(CCC(=O)O)c5)CCOC(C)C4)c[nH]3)c2)c(F)cc2[nH]ccc12 (single isomer, unassigned) [Example 154, 3-(3-(4-(2-(2-fluoro-5-((6-fluoro-4-methyl-1H-indol-5-yl)oxy)phenyl)-1H-imidazol-4-yl)-2-methyltetrahydro-2H-pyran-4-yl)phenyl)propanoic acid]",A (A: T ≥ 10° C.)
21,"CC(Cc1cccc(C(C)c2cnc(-c3cc(Oc4c(F)cc5[nH]ccc5c4F)ccc3F)[nH]2)c1F)C(=O)O (single isomer, unassigned) [Example 137B, 3-(3-(1-(2-(5-((4,6-difluoro-1H-indol-5-yl)oxy)-2-fluorophenyl)-1H-imidazol-5-yl)ethyl)-2-fluorophenyl)-2-methylpropanoic acid]",B (B: 5-10° C.)
22,"O=C(O)CCc1cccc(Cc2c[nH]c(-c3cc(Oc4c(F)cc5[nH]ccc5c4CC(F)F)ccc3F)n2)c1 [Example 117, 3-(3-((2-(5-((4-(2,2-difluoroethyl)-6-fluoro-1H-indol-5-yl)oxy)-2-fluorophenyl)-1H-imidazol-4-yl)methyl)phenyl)propanoic acid]",B (B: 5-10° C.)
23,"Cc1c(Oc2ccc(F)c(-c3ncc(C4(c5cccc(CCC(=O)O)c5)CCOCC4)[nH]3)c2)c(F)cc2[nH]ccc12 [Example 148, 3-(3-(4-(2-(2-fluoro-5-((6-fluoro-4-methyl-1H-indol-5-yl)oxy)phenyl)-1H-imidazol-5-yl)tetrahydro-2H-pyran-4-yl)phenyl)propanoic acid]",A (A: T ≥ 10° C.)
24,"CC(Cc1cccc(C(C)c2cnc(-c3cc(Oc4c(F)cc5[nH]ccc5c4F)ccc3F)[nH]2)c1F)C(=O)O (single isomer, unassigned) [Example 137C, 3-(3-(1-(2-(5-((4,6-difluoro-1H-indol-5-yl)oxy)-2-fluorophenyl)-1H-imidazol-5-yl)ethyl)-2-fluorophenyl)-2-methylpropanoic acid]",C (C: ≤5° C.)
25,"Cc1c(Oc2ccc(F)c(-c3nc(Cc4csc(CCC(=O)O)n4)c[nH]3)c2)c(F)cc2[nH]ccc12 [Example 89, 3-(4-((2-(2-Fluoro-5-((6-fluoro-4-methyl-1H-indol-5-yl)oxy)phenyl)-1H-imidazol-4-yl)methyl)thiazol-2-yl)propanoic acid]",B (B: 5-10° C.)
